# Results from paper PMC11877502, “Cytotoxic Stilbenoids, Hetero- and Homodimers of Homoisoflavonoids from Prospero autumnale” (Journal of Natural Products, 2025).
# Tested on: PC3
# Experiment: Annexin V/propidium iodide staining
# Format: cell-based, human
# Conditions: 48 h at IC50 concentration, flow cytometry
# Protocol: (§1) Apoptosis, necrosis, and viability were analyzed by Annexin V-FITC and […] (PI) staining. For this purpose, cells were seeded at 5 × 10^5 cells per 60 mm dish and incubated overnight to allow attachment. Then, cells were treated with the selected compounds (1, 2, 4, and 10) for 48 h at respective IC50 concentrations. For flow cytometric analysis, cells were detached with Trypsin-EDTA solution (Thermo Fisher Scientific #25200056), washed with Dulbecco’s phosphate buffered saline (DPBS, Thermo Fisher Scientific #14190094) solution, and suspended in 1 mL of ice-cold Annexin V Binding Buffer (BioLegend #422201). Cells were then stained with 1 μL of Annexin V-FITC (Biovision #1001) and 1 μL PI (Thermo Fisher Scientific # P1304MP, diluted to 250 μg/mL in DPBS) by incubating cells on ice for 15 min in the dark. Cells were then immediately analyzed on a Beckman Coulter DxFLEX flow cytometry system. Each analysis was performed in triplicate, and 25 × 10^3 events were counted for each tube. Evaluations were done with CytEXPERT software.
row,SMILES,"apoptosis/necrosis vs control, PC3"
1,"COc1cc(/C=C/c2ccc(O)cc2)cc(O)c1C [Compound 1, 3,4′-dihydroxy-4-methyl-5-methoxystilbene]",promoting apoptosis and necrosis

# Tested on: HEPG2
# Experiment: Annexin V/propidium iodide staining
# Format: cell-based, human
# Conditions: 48 h at IC50 concentration, flow cytometry
# Protocol: as §1
row,SMILES,"apoptosis/necrosis vs control, HEPG2"
1,"COc1ccc([C@H]2c3c(/C=C/c4ccc(O)cc4)cc(OC)c(C)c3O[C@@H]3Oc4cc(O)cc(O)c4C(=O)[C@@H]32)cc1 [Compound 10, prosperin C]",higher late apoptosis and necrosis

# Tested on: MCF7
# Experiment: Annexin V/propidium iodide staining
# Format: cell-based, human
# Conditions: 48 h at IC50 concentration, flow cytometry
# Protocol: as §1
row,SMILES,"apoptosis/necrosis vs control, MCF7"
1,"COc1ccc([C@H]2c3c(/C=C/c4ccc(O)cc4)cc(OC)c(C)c3O[C@@H]3Oc4cc(O)cc(O)c4C(=O)[C@@H]32)cc1 [Compound 10, prosperin C]",increased apoptosis and necrosis

# Tested on: DU145
# Experiment: Annexin V/propidium iodide staining
# Format: cell-based, human
# Conditions: 48 h at IC50 concentration, flow cytometry
# Protocol: as §1
row,SMILES,"apoptosis/necrosis vs control, DU145"
1,"COc1cc(/C=C/c2ccc(O)cc2)cc(O)c1C [Compound 1, 3,4′-dihydroxy-4-methyl-5-methoxystilbene]",promoting apoptosis and necrosis

# Tested on: HCT116
# Experiment: Annexin V/propidium iodide staining
# Format: cell-based, human
# Conditions: 48 h at IC50 concentration, flow cytometry
# Protocol: as §1
row,SMILES,"apoptosis/necrosis vs control, HCT116"
1,"COc1ccc([C@H]2c3c(/C=C/c4ccc(O)cc4)cc(OC)c(C)c3O[C@@H]3Oc4cc(O)cc(O)c4C(=O)[C@@H]32)cc1 [Compound 10, prosperin C]",significant increase in apoptosis

# Tested on: LoVo
# Experiment: Annexin V/propidium iodide staining
# Format: cell-based, human
# Conditions: 48 h at IC50 concentration, flow cytometry
# Protocol: (§2) Apoptosis, necrosis, and viability were analyzed by Annexin V-FITC and […] (PI) staining. For this purpose, cells were seeded at 5 × 10^5 cells per 60 mm dish and incubated overnight to allow attachment. […] Cells were then immediately analyzed on a Beckman Coulter DxFLEX flow cytometry system. Each analysis was performed in triplicate, and 25 × 10^3 events were counted for each tube. Evaluations were done with CytEXPERT software.
row,SMILES,"apoptosis/necrosis vs control, LoVo"
1,"COc1cc(/C=C/c2ccc(O)cc2)cc(O)c1C [Compound 1, 3,4′-dihydroxy-4-methyl-5-methoxystilbene]",apoptosis along with necrosis
2,"COc1ccc([C@H]2c3c(/C=C/c4ccc(O)cc4)cc(OC)c(C)c3O[C@@H]3Oc4cc(O)cc(O)c4C(=O)[C@@H]32)cc1 [Compound 10, prosperin C]",apoptosis along with necrosis

# Tested on: MDA-MB-231
# Experiment: Annexin V/propidium iodide staining
# Format: cell-based, human
# Conditions: 48 h at IC50 concentration, flow cytometry
# Protocol: as §2
row,SMILES,"apoptosis/necrosis vs control, MDA-MB-231"
1,"COc1ccc([C@H]2c3c(/C=C/c4ccc(O)cc4)cc(OC)c(C)c3O[C@@H]3Oc4cc(O)cc(O)c4C(=O)[C@@H]32)cc1 [Compound 10, prosperin C]",increased apoptosis and necrosis

# Tested on: human cancer cell lines (HCT116, LoVo, DU145, PC3, HEP3B, HEPG2, MCF7, MDA-MB-231)
# Experiment: MTS cytotoxicity assay, panel statements
# Format: cell-based
# Conditions: 48 h, span over compounds and cell lines, read-out: IC50 toward one or more cancer cell lines
# Protocol: (§3) Stock solutions of extracts and compounds were prepared by dissolving in DMSO (Sigma-Aldrich, no. D2650) at the concentrations of 100 mg/mL and 100 mM for extracts and compounds, respectively. […] Untreated cells were used as a control, while plain culture medium was used as a blank. Viability was determined with MTS Assay (Abcam #ab197010) according to the manufacturer’s instructions. Absorbance at 490 nm was measured with a spectrophotometer (Epoch, BioTek Instruments). Relative viability ratios were calculated with the equation given below, and IC50 values were determined in GraphPad Prism (version 8.0). [drawing 2]
row,SMILES,IC50 [µM]
1,"COc1cc(/C=C/c2ccc(O)cc2)cc(O)c1C [Compound 1, 3,4′-dihydroxy-4-methyl-5-methoxystilbene]",8.2 to 37.6
2,"COc1ccc([C@H]2c3c(/C=C/c4ccc(O)cc4)cc(OC)c(C)c3O[C@@H]3Oc4cc(O)cc(O)c4C(=O)[C@@H]32)cc1 [Compound 10, prosperin C]",8.2 to 37.6

# Tested on: LoVo
# Experiment: MTS cytotoxicity assay
# Format: cell-based
# Conditions: Homo sapiens, 48 h, triplicate, read-out: IC50 ± SEM LoVo
# Protocol: as §3
row,SMILES,IC50 [µM]
1,"COc1cc(/C=C/c2ccc(O)cc2)cc(O)c1C [Compound 1, 3,4′-dihydroxy-4-methyl-5-methoxystilbene]",10.6 ± 0.5
2,"COc1ccc([C@H]2c3c(/C=C/c4ccc(O)cc4)cc(OC)c(C)c3O[C@@H]3Oc4cc(O)cc(O)c4C(=O)[C@@H]32)cc1 [Compound 10, prosperin C]",16.7 ± 0.8

# Tested on: MDA-MB-231
# Experiment: MTS cytotoxicity assay
# Format: cell-based
# Conditions: Homo sapiens, 48 h, triplicate, read-out: IC50 ± SEM MDA-MB-231
# Protocol: as §3
row,SMILES,IC50 [µM]
1,"COc1cc(/C=C/c2ccc(O)cc2)cc(O)c1C [Compound 1, 3,4′-dihydroxy-4-methyl-5-methoxystilbene]",79.6 ± 5.6
2,"COc1ccc([C@H]2c3c(/C=C/c4ccc(O)cc4)cc(OC)c(C)c3O[C@@H]3Oc4cc(O)cc(O)c4C(=O)[C@@H]32)cc1 [Compound 10, prosperin C]",25.5 ± 2.4

# Tested on: PC3
# Experiment: MTS cytotoxicity assay
# Format: cell-based
# Conditions: Homo sapiens, PC-3, 48 h, triplicate, read-out: IC50 ± SEM PC3
# Protocol: as §3
row,SMILES,IC50 [µM]
1,"COc1cc(/C=C/c2ccc(O)cc2)cc(O)c1C [Compound 1, 3,4′-dihydroxy-4-methyl-5-methoxystilbene]",21.3 ± 2.1
2,"COc1ccc([C@H]2c3c(/C=C/c4ccc(O)cc4)cc(OC)c(C)c3O[C@@H]3Oc4cc(O)cc(O)c4C(=O)[C@@H]32)cc1 [Compound 10, prosperin C]",36.7 ± 2.5

# Tested on: HEPG2
# Experiment: MTS cytotoxicity assay
# Format: cell-based
# Conditions: Homo sapiens, 48 h, triplicate, read-out: IC50 ± SEM HEPG2
# Protocol: as §3
row,SMILES,IC50 [µM]
1,"COc1cc(/C=C/c2ccc(O)cc2)cc(O)c1C [Compound 1, 3,4′-dihydroxy-4-methyl-5-methoxystilbene]",37.6 ± 5.3
2,"COc1ccc([C@H]2c3c(/C=C/c4ccc(O)cc4)cc(OC)c(C)c3O[C@@H]3Oc4cc(O)cc(O)c4C(=O)[C@@H]32)cc1 [Compound 10, prosperin C]",24 ± 2.2

# Tested on: MCF7
# Experiment: MTS cytotoxicity assay
# Format: cell-based
# Conditions: Homo sapiens, 48 h, triplicate, read-out: IC50 ± SEM MCF7
# Protocol: as §3
row,SMILES,IC50 [µM]
1,"COc1cc(/C=C/c2ccc(O)cc2)cc(O)c1C [Compound 1, 3,4′-dihydroxy-4-methyl-5-methoxystilbene]",53.5 ± 9.1
2,"COc1ccc([C@H]2c3c(/C=C/c4ccc(O)cc4)cc(OC)c(C)c3O[C@@H]3Oc4cc(O)cc(O)c4C(=O)[C@@H]32)cc1 [Compound 10, prosperin C]",25.2 ± 5.1

# Tested on: DU145
# Experiment: MTS cytotoxicity assay
# Format: cell-based
# Conditions: Homo sapiens, DU-145, 48 h, triplicate, read-out: IC50 ± SEM DU145
# Protocol: as §3
row,SMILES,IC50 [µM]
1,"COc1cc(/C=C/c2ccc(O)cc2)cc(O)c1C [Compound 1, 3,4′-dihydroxy-4-methyl-5-methoxystilbene]",29.7 ± 4.4
2,"COc1ccc([C@H]2c3c(/C=C/c4ccc(O)cc4)cc(OC)c(C)c3O[C@@H]3Oc4cc(O)cc(O)c4C(=O)[C@@H]32)cc1 [Compound 10, prosperin C]",40.1 ± 2.8

# Tested on: HCT116
# Experiment: MTS cytotoxicity assay
# Format: cell-based
# Conditions: Homo sapiens, HCT-116, 48 h, triplicate, read-out: IC50 ± SEM HCT116
# Protocol: as §3
row,SMILES,IC50 [µM]
1,"COc1cc(/C=C/c2ccc(O)cc2)cc(O)c1C [Compound 1, 3,4′-dihydroxy-4-methyl-5-methoxystilbene]",54.6 ± 5.5
2,"COc1ccc([C@H]2c3c(/C=C/c4ccc(O)cc4)cc(OC)c(C)c3O[C@@H]3Oc4cc(O)cc(O)c4C(=O)[C@@H]32)cc1 [Compound 10, prosperin C]",19.3 ± 3.1

# Tested on: HEP3B
# Experiment: MTS cytotoxicity assay
# Format: cell-based
# Conditions: Homo sapiens, 48 h, triplicate, read-out: IC50 ± SEM HEP3B
# Protocol: as §3
row,SMILES,IC50 [µM]
1,"COc1cc(/C=C/c2ccc(O)cc2)cc(O)c1C [Compound 1, 3,4′-dihydroxy-4-methyl-5-methoxystilbene]",59.8 ± 4.2
2,"COc1ccc([C@H]2c3c(/C=C/c4ccc(O)cc4)cc(OC)c(C)c3O[C@@H]3Oc4cc(O)cc(O)c4C(=O)[C@@H]32)cc1 [Compound 10, prosperin C]",59.9 ± 6.9

# Tested on: LoVo
# Experiment: DNA content (cell cycle) analysis
# Format: cell-based, human
# Conditions: 48 h, DNA content by flow cytometry
# Protocol: (§4) To investigate cell cycle progression, cells were seeded as 5 × 10^5 cells per 60 mm dish and incubated overnight for attachment. After incubating with the selected compounds for 48 h, cells were detached with Trypsin-EDTA, washed once with DPBS, and fixed with ice-cold 70% EtOH by storing tubes at 4 °C for an hour. Then, EtOH was discarded by centrifuging cells, and the pellet was suspended in 500 μL cell cycle kit reagent (Beckman Coulter #C03551). Tubes were incubated at room temperature under the dark for 30 min. The experiment was done on triplicate, and 5 × 10^4 cells per test were acquired at a medium flow rate with the Beckman Coulter DxFLEX flow cytometry system. Analyses were performed with ModFit LT version 4.0.
row,SMILES,"cell cycle effect, LoVo"
1,"COc1cc(/C=C/c2ccc(O)cc2)cc(O)c1C [Compound 1, 3,4′-dihydroxy-4-methyl-5-methoxystilbene]",S phase arrest
2,"COc1ccc([C@H]2c3c(/C=C/c4ccc(O)cc4)cc(OC)c(C)c3O[C@@H]3Oc4cc(O)cc(O)c4C(=O)[C@@H]32)cc1 [Compound 10, prosperin C]",G0/G1 phase arrest

# Tested on: MDA-MB-231
# Experiment: DNA content (cell cycle) analysis
# Format: cell-based, human
# Conditions: 48 h, DNA content by flow cytometry
# Protocol: as §4
row,SMILES,"cell cycle effect, MDA-MB-231"
1,"COc1ccc([C@H]2c3c(/C=C/c4ccc(O)cc4)cc(OC)c(C)c3O[C@@H]3Oc4cc(O)cc(O)c4C(=O)[C@@H]32)cc1 [Compound 10, prosperin C]",G0/G1 phase arrest

# Tested on: PC3
# Experiment: DNA content (cell cycle) analysis
# Format: cell-based, human
# Conditions: 48 h, DNA content by flow cytometry
# Protocol: as §4
row,SMILES,"cell cycle effect, PC3"
1,"COc1cc(/C=C/c2ccc(O)cc2)cc(O)c1C [Compound 1, 3,4′-dihydroxy-4-methyl-5-methoxystilbene]",S phase arrest

# Tested on: HEPG2
# Experiment: DNA content (cell cycle) analysis
# Format: cell-based, human
# Conditions: 48 h, DNA content by flow cytometry
# Protocol: as §4
row,SMILES,"cell cycle effect, HEPG2"
1,"COc1ccc([C@H]2c3c(/C=C/c4ccc(O)cc4)cc(OC)c(C)c3O[C@@H]3Oc4cc(O)cc(O)c4C(=O)[C@@H]32)cc1 [Compound 10, prosperin C]",slight S phase decrease

# Tested on: MCF7
# Experiment: DNA content (cell cycle) analysis
# Format: cell-based, human
# Conditions: 48 h, DNA content by flow cytometry
# Protocol: as §4
row,SMILES,"cell cycle effect, MCF7"
1,"COc1ccc([C@H]2c3c(/C=C/c4ccc(O)cc4)cc(OC)c(C)c3O[C@@H]3Oc4cc(O)cc(O)c4C(=O)[C@@H]32)cc1 [Compound 10, prosperin C]",G0/G1 phase arrest

# Tested on: HCT116
# Experiment: DNA content (cell cycle) analysis
# Format: cell-based, human
# Conditions: 48 h, DNA content by flow cytometry
# Protocol: as §4
row,SMILES,"cell cycle effect, HCT116"
1,"COc1ccc([C@H]2c3c(/C=C/c4ccc(O)cc4)cc(OC)c(C)c3O[C@@H]3Oc4cc(O)cc(O)c4C(=O)[C@@H]32)cc1 [Compound 10, prosperin C]",G0/G1 phase arrest

# Tested on: L929 nontumor mouse fibroblast cell line
# Experiment: MTS cytotoxicity assay, nontumor cell line
# Format: cell-based
# Conditions: 48 h, triplicate, read-out: IC50 ± SEM L929
# Protocol: as §3
row,SMILES,IC50 [µM]
1,"COc1cc(/C=C/c2ccc(O)cc2)cc(O)c1C [Compound 1, 3,4′-dihydroxy-4-methyl-5-methoxystilbene]",33.7 ± 3.9
2,"COc1ccc([C@H]2c3c(/C=C/c4ccc(O)cc4)cc(OC)c(C)c3O[C@@H]3Oc4cc(O)cc(O)c4C(=O)[C@@H]32)cc1 [Compound 10, prosperin C]",29.7 ± 1.7
